In brackets after ≈: the same amount, converted by molar mass. Activity calls are given as the source filed them. The calls are words filed in the database; no cut-off is given here.
Assays:
Format in all cases: functional
[1] = test system: HL-60(TB); assay: Growth inhibition of human HL-60(TB) cells at 10^-5 M incubated for 48 hrs by sulforhodamine B assay relative to control
[2] = test system: MOLT-4; assay: Growth inhibition of human MOLT4 cells at 10^-5 M incubated for 48 hrs by sulforhodamine B assay relative to control
[3] = test system: A549; assay: Growth inhibition of human A549/ATCC cells at 10^-5 M incubated for 48 hrs by sulforhodamine B assay relative to control
[4] = test system: EKVX; assay: Growth inhibition of human EKVX cells at 10^-5 M incubated for 48 hrs by sulforhodamine B assay relative to control
[5] = test system: NCI-H23; assay: Growth inhibition of human NCI-H23 cells at 10^-5 M incubated for 48 hrs by sulforhodamine B assay relative to control
[6] = test system: NCI-H460; assay: Growth inhibition of human NCI-H460 cells at 10^-5 M incubated for 48 hrs by sulforhodamine B assay relative to control
[7] = test system: NCI-H522; assay: Growth inhibition of human NCI-H522 cells at 10^-5 M incubated for 48 hrs by sulforhodamine B assay relative to control
[8] = test system: COLO 205; assay: Growth inhibition of human COLO205 cells at 10^-5 M incubated for 48 hrs by sulforhodamine B assay relative to control
[9] = test system: HCC 2998; assay: Growth inhibition of human HCC2998 cells at 10^-5 M incubated for 48 hrs by sulforhodamine B assay relative to control
[10] = test system: HCT-116; assay: Growth inhibition of human HCT116 cells at 10^-5 M incubated for 48 hrs by sulforhodamine B assay relative to control
[11] = test system: HCT-15; assay: Growth inhibition of human HCT15 cells at 10^-5 M incubated for 48 hrs by sulforhodamine B assay relative to control
[12] = test system: KM12; assay: Growth inhibition of human KM12 cells at 10^-5 M incubated for 48 hrs by sulforhodamine B assay relative to control
[13] = test system: SW-620; assay: Growth inhibition of human SW620 cells at 10^-5 M incubated for 48 hrs by sulforhodamine B assay relative to control
[14] = test system: SF-295; assay: Growth inhibition of human SF295 cells at 10^-5 M incubated for 48 hrs by sulforhodamine B assay relative to control
[15] = test system: SF-539; assay: Growth inhibition of human SF539 cells at 10^-5 M incubated for 48 hrs by sulforhodamine B assay relative to control
[16] = test system: SNB-19; assay: Growth inhibition of human SNB19 cells at 10^-5 M incubated for 48 hrs by sulforhodamine B assay relative to control
[17] = test system: SNB-75; assay: Growth inhibition of human SNB75 cells at 10^-5 M incubated for 48 hrs by sulforhodamine B assay relative to control
[18] = test system: U-251; assay: Growth inhibition of human U251 cells at 10^-5 M incubated for 48 hrs by sulforhodamine B assay relative to control
[19] = test system: LOX IMVI; assay: Growth inhibition of human LOXIMVI cells at 10^-5 M incubated for 48 hrs by sulforhodamine B assay relative to control
[20] = test system: M14; assay: Growth inhibition of human M14 cells at 10^-5 M incubated for 48 hrs by sulforhodamine B assay relative to control
[21] = test system: SK-MEL-2; assay: Growth inhibition of human SK-MEL-2 cells at 10^-5 M incubated for 48 hrs by sulforhodamine B assay relative to control
[22] = test system: SK-MEL-28; assay: Growth inhibition of human SK-MEL-28 cells at 10^-5 M incubated for 48 hrs by sulforhodamine B assay relative to control
[23] = test system: SK-MEL-5; assay: Growth inhibition of human SK-MEL-5 cells at 10^-5 M incubated for 48 hrs by sulforhodamine B assay relative to control
[24] = test system: UACC-257; assay: Growth inhibition of human UACC257 cells at 10^-5 M incubated for 48 hrs by sulforhodamine B assay relative to control
[25] = test system: UACC-62; assay: Growth inhibition of human UACC62 cells at 10^-5 M incubated for 48 hrs by sulforhodamine B assay relative to control
[26] = test system: IGROV-1; assay: Growth inhibition of human IGROV1 cells at 10^-5 M incubated for 48 hrs by sulforhodamine B assay relative to control
[27] = test system: OVCAR-4; assay: Growth inhibition of human OVCAR4 cells at 10^-5 M incubated for 48 hrs by sulforhodamine B assay relative to control
[28] = test system: OVCAR-5; assay: Growth inhibition of human OVCAR5 cells at 10^-5 M incubated for 48 hrs by sulforhodamine B assay relative to control
[29] = test system: OVCAR-8; assay: Growth inhibition of human OVCAR8 cells at 10^-5 M incubated for 48 hrs by sulforhodamine B assay relative to control
[30] = test system: NCI/ADR-RES; assay: Growth inhibition of human NCI-ADR-RES cells at 10^-5 M incubated for 48 hrs by sulforhodamine B assay relative to control
[31] = test system: 786-0; assay: Growth inhibition of human 786-0 cells at 10^-5 M incubated for 48 hrs by sulforhodamine B assay relative to control
[32] = test system: ACHN; assay: Growth inhibition of human ACHN cells at 10^-5 M incubated for 48 hrs by sulforhodamine B assay relative to control
[33] = test system: RXF 393; assay: Growth inhibition of human RXF393 cells at 10^-5 M incubated for 48 hrs by sulforhodamine B assay relative to control
[34] = test system: TK-10; assay: Growth inhibition of human TK10 cells at 10^-5 M incubated for 48 hrs by sulforhodamine B assay relative to control
[35] = test system: UO-31; assay: Growth inhibition of human UO31 cells at 10^-5 M incubated for 48 hrs by sulforhodamine B assay relative to control
[36] = test system: MCF7; assay: Growth inhibition of human MCF7 cells at 10^-5 M incubated for 48 hrs by sulforhodamine B assay relative to control
[37] = test system: MDA-MB-231; assay: Growth inhibition of human MDA-MB-231/ATCC cells at 10^-5 M incubated for 48 hrs by sulforhodamine B assay relative to control
[38] = test system: Hs-578T; assay: Growth inhibition of human Hs 578T cells at 10^-5 M incubated for 48 hrs by sulforhodamine B assay relative to control
[39] = test system: BT-549; assay: Growth inhibition of human BT549 cells at 10^-5 M incubated for 48 hrs by sulforhodamine B assay relative to control
[40] = test system: T47D; assay: Growth inhibition of human T47D cells at 10^-5 M incubated for 48 hrs by sulforhodamine B assay relative to control
[41] = test system: MDA-MB-468; assay: Growth inhibition of human MDA-MB-468 cells at 10^-5 M incubated for 48 hrs by sulforhodamine B assay relative to control
[42] = test system: Candida albicans; assay: Antifungal activity against Candida albicans at 100 ug/ml by disc diffusion method; conditions: read-out: IZ
[43] = test system: Candida albicans; assay: Antifungal activity against Candida albicans after 24 hrs by serial dilution method
[44] = test system: Aspergillus fumigatus; assay: Antifungal activity against Aspergillus fumigatus after 24 hrs by serial dilution method

SMILES: Fc1ccc2nc(Cl)c(Cn3nnnc3CSc3ccccc3)cc2c1
- growth inhibition (GI) [1]: Active
- growth inhibition (GI) [2]: Active
- growth inhibition (GI) [3]: Active
- growth inhibition (GI) [4]: Active
- growth inhibition (GI) [5]: Active
- growth inhibition (GI) [6]: Active
- growth inhibition (GI) [7]: Active
- growth inhibition (GI) [8]: Active
- growth inhibition (GI) [9]: Active
- growth inhibition (GI) [10]: Active
- growth inhibition (GI) [11]: Active
- growth inhibition (GI) [12]: Active
- growth inhibition (GI) [13]: Active
- growth inhibition (GI) [14]: Active
- growth inhibition (GI) [15]: Active
- growth inhibition (GI) [16]: Active
- growth inhibition (GI) [17]: Active
- growth inhibition (GI) [18]: Active
- growth inhibition (GI) [19]: Active
- growth inhibition (GI) [20]: Active
- growth inhibition (GI) [21]: Active
- growth inhibition (GI) [22]: Active
- growth inhibition (GI) [23]: Active
- growth inhibition (GI) [24]: Active
- growth inhibition (GI) [25]: Active
- growth inhibition (GI) [26]: Active
- growth inhibition (GI) [27]: Active
- growth inhibition (GI) [28]: Active
- growth inhibition (GI) [29]: Active
- growth inhibition (GI) [30]: Active
- growth inhibition (GI) [31]: Active
- growth inhibition (GI) [32]: Active
- growth inhibition (GI) [33]: Active
- growth inhibition (GI) [34]: Active
- growth inhibition (GI) [35]: Active
- growth inhibition (GI) [36]: Active
- growth inhibition (GI) [37]: Active
- growth inhibition (GI) [38]: Active
- growth inhibition (GI) [39]: Active
- growth inhibition (GI) [40]: Active
- growth inhibition (GI) [41]: Active
- zone of inhibition at 100 µg/mL [42]: 13 mm
- MIC [43]: 50 µg/mL (≈ 130 µM)
- MIC [44]: 2.5 µg/mL (≈ 6.48 µM)

SMILES: COc1ccc2nc(Cl)c(Cn3nnnc3Cc3ccccc3)cc2c1
- growth inhibition (GI) [1]: Active
- growth inhibition (GI) [2]: Active
- growth inhibition (GI) [3]: Active
- growth inhibition (GI) [4]: Active
- growth inhibition (GI) [5]: Active
- growth inhibition (GI) [6]: Active
- growth inhibition (GI) [7]: Active
- growth inhibition (GI) [8]: Active
- growth inhibition (GI) [9]: Active
- growth inhibition (GI) [10]: Active
- growth inhibition (GI) [11]: Active
- growth inhibition (GI) [12]: Active
- growth inhibition (GI) [13]: Active
- growth inhibition (GI) [14]: Active
- growth inhibition (GI) [15]: Active
- growth inhibition (GI) [16]: Active
- growth inhibition (GI) [17]: Active
- growth inhibition (GI) [18]: Active
- growth inhibition (GI) [19]: Active
- growth inhibition (GI) [20]: Active
- growth inhibition (GI) [21]: Active
- growth inhibition (GI) [22]: Active
- growth inhibition (GI) [23]: Active
- growth inhibition (GI) [24]: Active
- growth inhibition (GI) [25]: Active
- growth inhibition (GI) [26]: Active
- growth inhibition (GI) [27]: Active
- growth inhibition (GI) [28]: Active
- growth inhibition (GI) [29]: Active
- growth inhibition (GI) [30]: Active
- growth inhibition (GI) [31]: Active
- growth inhibition (GI) [32]: Active
- growth inhibition (GI) [33]: Active
- growth inhibition (GI) [34]: Active
- growth inhibition (GI) [35]: Active
- growth inhibition (GI) [36]: Active
- growth inhibition (GI) [37]: Active
- growth inhibition (GI) [38]: Active
- growth inhibition (GI) [39]: Active
- growth inhibition (GI) [40]: Active
- growth inhibition (GI) [41]: Active
- zone of inhibition at 100 µg/mL [42]: 15 mm
- MIC [43]: 25 µg/mL (≈ 68.3 µM)
- MIC [44]: 25 µg/mL (≈ 68.3 µM)

Reference: ChEMBL document CHEMBL4004849, “Tetrazolylmethyl quinolines: Design, docking studies, synthesis, anticancer and antifungal analyses” (2017)
